# From PubChem BioAssay (NCI)
#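 Cultured in 96-well plates, cells were exposed to test compound for 48 hours across five concentrations. TGI: total growth inhibition.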
# Columns and labels:
# Assay in all cases: NCI tumour cell line growth inhibition, 48 h
# [1] = system: TK-10 renal
# [2] = system: OVCAR-3 ovarian
# [3] = system: MOLT-4 leukemia
# [4] = system: PC-3 prostate
# [5] = system: HT29 colon
# [6] = system: HCC-2998 colon
# [7] = system: NCI-H226 lung
# [8] = system: OVCAR-4 ovarian
# [9] = system: DU-145 prostate
# [10] = system: ACHN renal
# [11] = system: MALME-3M melanoma
# [12] = system: SF-539 CNS
# [13] = system: HCT-15 colon
# [14] = system: BT-549 breast
# [15] = system: A498 renal
# [16] = system: CCRF-CEM leukemia
# [17] = system: MDA-N
# [18] = system: M14 melanoma
# [19] = system: HS 578T breast
# [20] = system: RPMI-8226 leukemia
# [21] = system: UACC-257 melanoma
# [22] = system: OVCAR-5 ovarian
# [23] = system: MDA-MB-231 breast
# [24] = system: NCI/ADR-RES ovarian
# [25] = system: HOP-62 NSCLC
# [26] = system: SNB-75 CNS
# [27] = system: U251 CNS
# [28] = system: OVCAR-8 ovarian
# [29] = system: NCI-H522 lung
# [30] = system: CAKI-1 renal
# [31] = system: NCI-H23 lung
# [32] = system: K-562 leukemia
# [33] = system: SF-268 CNS
# [34] = system: NCI-H460 lung
# [35] = system: SW-620 colon
# [36] = system: SNB-19 CNS
# [37] = system: HCT-116 colon
# [38] = system: SK-MEL-5 melanoma
# [39] = system: UO-31 renal
# [40] = system: 786-0 renal
# [41] = system: MDA-MB-435
# [42] = system: SK-MEL-28 melanoma
# [43] = system: HOP-92 NSCLC
# [44] = system: UACC-62 melanoma
# [45] = system: IGROV1 ovarian
# [46] = system: A549 NSCLC
# [47] = system: COLO 205 colon
# [48] = system: KM12 colon
# [49] = system: SK-MEL-2 melanoma
# [50] = system: SF-295 CNS
# [51] = system: SN12C renal
# [52] = system: T-47D breast
# [53] = system: EKVX NSCLC
# [54] = system: LOX IMVI melanoma
# [55] = system: MCF7 breast
# [56] = system: SK-OV-3 ovarian
# [57] = system: HL-60(TB) leukemia
# [58] = system: RXF 393 renal
# [59] = system: SR leukemia
compound,measurement,setting,value
Oc1cccc2c1[nH]c1c(C3=C[C@@]4(O)CC/C=C\CCCCN5CC[C@@H]3[C@]3(CC6/C=C\CCCCN6[C@H]34)C5)nccc12 (some centres not stated),TGI,[1],5.56 µM
same,TGI,[2],2.83 µM
same,TGI,[3],4.95 µM
same,TGI,[4],3.87 µM
same,TGI,[5],2.25 µM
same,TGI,[6],1.87 µM
same,TGI,[7],5.17 µM
same,TGI,[8],2.79 µM
same,TGI,[9],4.64 µM
same,TGI,[10],4.1 µM
same,TGI,[11],3.02 µM
same,TGI,[12],3.74 µM
same,TGI,[13],1.86 µM
same,TGI,[14],4.37 µM
same,TGI,[15],7.65 µM
same,TGI,[16],4.04 µM
same,TGI,[17],2 µM
same,TGI,[18],2.45 µM
same,TGI,[19],3.69 µM
same,TGI,[20],2.6 µM
same,TGI,[21],5.79 µM
same,TGI,[22],2.81 µM
same,TGI,[23],2.81 µM
same,TGI,[24],6.31 µM
same,TGI,[25],1.85 µM
same,TGI,[26],3.86 µM
same,TGI,[27],2.79 µM
same,TGI,[28],2.88 µM
same,TGI,[29],2.4 µM
same,TGI,[30],4.43 µM
same,TGI,[31],2.56 µM
same,TGI,[32],2.01 µM
same,TGI,[33],6.15 µM
same,TGI,[34],2.19 µM
same,TGI,[35],3.44 µM
same,TGI,[36],14.6 µM
same,TGI,[37],2.74 µM
same,TGI,[38],2.96 µM
same,TGI,[39],3.5 µM
same,TGI,[40],1.86 µM
same,TGI,[41],2.17 µM
same,TGI,[42],3.73 µM
same,TGI,[43],1.3 µM
same,TGI,[44],3.26 µM
same,TGI,[45],3.18 µM
same,TGI,[46],4.39 µM
same,TGI,[47],3.71 µM
same,TGI,[48],2.99 µM
same,TGI,[49],2.97 µM
same,TGI,[50],3.29 µM
same,TGI,[51],2.49 µM
same,TGI,[52],3.19 µM
same,TGI,[53],4.87 µM
same,TGI,[54],2.04 µM
same,TGI,[55],1.77 µM
same,TGI,[56],5.15 µM
same,TGI,[57],2.59 µM
N#CSc1ccc(S(N)(=O)=O)cc1,TGI,[1],> 100 µM
same,TGI,[2],> 100 µM
same,TGI,[3],29.6 µM
same,TGI,[4],> 100 µM
same,TGI,[5],> 100 µM
same,TGI,[6],> 100 µM
same,TGI,[7],> 100 µM
same,TGI,[8],93.1 µM
same,TGI,[9],> 100 µM
same,TGI,[10],> 100 µM
same,TGI,[11],> 100 µM
same,TGI,[12],68 µM
same,TGI,[13],> 100 µM
same,TGI,[14],> 100 µM
same,TGI,[15],> 100 µM
same,TGI,[16],88.7 µM
same,TGI,[17],> 100 µM
same,TGI,[18],45.5 µM
same,TGI,[19],> 100 µM
same,TGI,[20],61.5 µM
same,TGI,[21],> 100 µM
same,TGI,[22],> 100 µM
same,TGI,[23],> 100 µM
same,TGI,[24],> 100 µM
same,TGI,[25],> 100 µM
same,TGI,[26],> 100 µM
same,TGI,[27],38.1 µM
same,TGI,[28],> 100 µM
same,TGI,[29],26.5 µM
same,TGI,[30],> 100 µM
same,TGI,[31],> 100 µM
same,TGI,[32],> 100 µM
same,TGI,[33],> 100 µM
same,TGI,[34],> 100 µM
same,TGI,[58],70.6 µM
same,TGI,[35],98.9 µM
same,TGI,[36],> 100 µM
same,TGI,[37],> 100 µM
same,TGI,[38],> 100 µM
same,TGI,[39],35.2 µM
same,TGI,[40],65.2 µM
same,TGI,[41],> 100 µM
same,TGI,[42],> 100 µM
same,TGI,[43],> 100 µM
same,TGI,[44],> 100 µM
same,TGI,[45],> 100 µM
same,TGI,[46],> 100 µM
same,TGI,[47],> 100 µM
same,TGI,[48],> 100 µM
same,TGI,[49],> 100 µM
same,TGI,[50],> 100 µM
same,TGI,[51],> 100 µM
same,TGI,[52],> 100 µM
same,TGI,[53],> 100 µM
same,TGI,[54],> 100 µM
same,TGI,[55],> 100 µM
same,TGI,[56],> 100 µM
same,TGI,[57],37.1 µM
COc1ccc(C(c2ccc3c(c2)OCO3)N2C(=O)CCC2C(=O)O)cc1 (configuration not stated),TGI,[1],> 100 µM
same,TGI,[2],> 100 µM
same,TGI,[3],> 100 µM
same,TGI,[4],> 100 µM
same,TGI,[5],> 100 µM
same,TGI,[6],> 100 µM
same,TGI,[7],> 100 µM
same,TGI,[8],> 100 µM
same,TGI,[9],> 100 µM
same,TGI,[10],> 100 µM
same,TGI,[11],> 100 µM
same,TGI,[12],> 100 µM
same,TGI,[13],> 100 µM
same,TGI,[14],> 100 µM
same,TGI,[15],> 100 µM
same,TGI,[16],> 100 µM
same,TGI,[17],> 100 µM
same,TGI,[18],> 100 µM
same,TGI,[20],> 100 µM
same,TGI,[21],> 100 µM
same,TGI,[22],> 100 µM
same,TGI,[23],> 100 µM
same,TGI,[24],> 100 µM
same,TGI,[25],> 100 µM
same,TGI,[26],> 100 µM
same,TGI,[27],> 100 µM
same,TGI,[28],> 100 µM
same,TGI,[29],> 100 µM
same,TGI,[30],> 100 µM
same,TGI,[31],> 100 µM
same,TGI,[32],> 100 µM
same,TGI,[33],> 100 µM
same,TGI,[34],> 100 µM
same,TGI,[35],> 100 µM
same,TGI,[36],> 100 µM
same,TGI,[37],> 100 µM
same,TGI,[38],> 100 µM
same,TGI,[39],> 100 µM
same,TGI,[40],> 100 µM
same,TGI,[41],> 100 µM
same,TGI,[42],> 100 µM
same,TGI,[43],> 100 µM
same,TGI,[44],> 100 µM
same,TGI,[45],> 100 µM
same,TGI,[46],> 100 µM
same,TGI,[47],> 100 µM
same,TGI,[48],> 100 µM
same,TGI,[49],> 100 µM
same,TGI,[50],> 100 µM
same,TGI,[51],> 100 µM
same,TGI,[52],> 100 µM
same,TGI,[53],> 100 µM
same,TGI,[59],> 100 µM
same,TGI,[54],> 100 µM
same,TGI,[55],> 100 µM
same,TGI,[56],> 100 µM
same,TGI,[57],> 100 µM
